Consider five compounds from publication PMC7216467, “Evaluation of neuroprotective and anti-amnesic effects of Elaeagnus umbellata Thunb. On scopolamine-induced memory impairment in mice” (BMC Complementary Medicine and Therapies, 2020).

Assay [1] has as its target T1, Acetyl cholinesterase (Electron-eel Type, VI-S) (Electrophorus electricus, UniProt O42275).
T1 construct: purchased Sigma-Aldrich, Germany
The assay is described as follows: biochemical. The class given is biochemical. The settings on record: for IC50: linear regression, read-out: AChE IC50 (converted). On the procedure:
Ellman assay was used to evaluate E. umbellata fruit extracts and isolated compounds for their anticholinesterase potentials. About 205 μL extract/compound solutions and 5 μL of AChE (0.03 U/mL)/BChE (0.01 U/mL) along with catalyst DTNB (5 μL) were taken in a cuvette and kept at 30 °C in hot water bath for 15 min. […] As a negative control solution all the above mentioned components except extracts and isolated compounds were mixed in the mentioned order.
V is inhibitor dependent rate of reaction while, Vmax is inhibitor independent rate of reaction.

Another assay in a line: DPPH scavenging assay. On the procedure: About 24 mg, DPPH was dissolved in 100 mL methanol. Compounds solutions (1 mg/mL) were also prepared in methanol. […] About 0.1 mL of each working dilution was mixed with DPPH (3.0 mL) and incubated at 25 °C for 30 min. […] Ascorbic acid was used as a standard.
A general note: Loss of DPPH colour is used to gauge radical scavenging.

A short description of another assay: ABTS scavenging assay. On the procedure: About 300 μL compounds working dilutions and 3.0 mL ABTS solutions were mixed and incubated for 6 min. Finally the absorbance was measured via UV spectrophotometer. Ascorbic acid was used as positive control. % ABTS scavenging potential was measured using eq. 4.
Assay [2] relates to scopolamine-induced cognitive impairment in mice. In words: Y-maze test, scopolamine-induced amnesia. In kind it is in vivo. On the procedure: (§1) After the acclimatization period, in scopolamine-induced amnesia test the Albino male mice were randomly divided into six groups (n = 6) to study the effect of CHF. […] The doses of tested solutions of CHF. […] The treatments were continued for 8 days. In the Y-maze and Novel object recognition tests, scopolamine (1 mg/kg, i.p.) was given to the different groups only on the 8th day, 30 min after the respective treatments, to induce cognitive deficit in mice. One hour after administration of the drugs all animals were subjected to Y-maze and Novel object recognition test following standard procedure.
The Y-Maze test was designed to evaluate the short term memory in experimental mice using reported procedure. Y-maze apparatus is Y shaped with three arms of equivalent size, labelled as A, B, and C. Each arm was 20 cm long, 6 cm wide and 15.5 cm high and was oriented at an angle of 120° from the other two. For each animal the Y maze testing was carried out for 5 min. Mice were placed in one arm, and the order and number of arm entries were recorded. An arm entry was considered to be complete when the hind paws of the mice was completely inside a given arm while alternation was defined as consecutive entries by a mouse into the three different arms. The arena was cleaned using 70% v/v ethanol between each trial to avoid olfactory cues. The escape latency (second) on day 1–5 were recorded for all animals. At the end of 5th day, the spontaneous alteration behavior study was conducted. In spontaneous alteration study, each animal was placed at the center of the Y-Maze apparatus and allowed to move freely through the maze. The series of arm entries were visually recorded. To start behavioral test the mice was set in one arm and recorded the number of arm entries, same arm returns (SAR), and alternate arm returns (AAR) were measured. Percent spontaneous alternation performance (SAP) was calculated by the following formula: 5 %SAP=Active alterationstotal alterations/Possible alterationstotalarmentries−2x100

Assay [3] shares this test system. In words: Novel object recognition test, scopolamine-induced amnesia. The note with it: donepezil 2 mg/kg. The class given is in vivo. On the procedure:
as §1
The detail methodology published, was followed while performing the novel object recognition (NORT) test. NORT consisting of habituation, sample, and test phases. On the day before test, mice were allowed to explore the box (without any object) for 2 min. On the day of test after habituation the sample phase was carried out 60 min after the last treatment on the 8th day. In sample phase each mouse was placed in an open field with two identical objects (plastic ball) for 5 min. The mouse was then returned to its home cage. The apparatus was comprised of a white coloured plywood box (40 cm × 40 cm × 66 cm) with a network floors that could be effortlessly cleaned (with 70%v/v ethanol) after every trial. The apparatus was illuminated by a 60 W light suspended 50 cm over the crate. The arena and objects were cleaned with 70% v/v ethanol between trials to avoid olfactory cues. For short-term memory, the test phase was performed 5 min after the sample phase. In the test phase, each mouse was placed again in the open field in which one of the identical objects had been replaced with a novel object (plastic square). The location of the object was counterbalanced so that one half of the mice in each group saw the novel object on the left side of the box arena, and the other half saw the novel object on the right side of the box arena to eliminate bias of sides. NORT can also be used for encoding and retrieval of spatial memory (long-term memory). A wash-out period of 5 days was allowed before the NORT to assess long-term memory in mice. The procedure was the same as that for short-term memory except that mice were presented in the test phase 24 h after the sample phase exposure. The time spent exploring each object in each phase was recorded manually using a stopwatch. A mouse was scored as exploring when its head was oriented towards the object within a distance of 2 cm or when the nose was in contact with the object. Parameters including the time (in seconds) spent exploring familiar (F) object, time (in seconds) spent exploring the novel (N) object, and total time (in seconds) spent exploring both objects (N + F) were measured separately.

Setting [4] is: vs scopolamine (1 mg/kg) group, CHF. Ext 200 mg/kg, CGA 10 and 30 mg/kg, donepezil 2 mg/kg.

T1 sequence (O42275 24-633): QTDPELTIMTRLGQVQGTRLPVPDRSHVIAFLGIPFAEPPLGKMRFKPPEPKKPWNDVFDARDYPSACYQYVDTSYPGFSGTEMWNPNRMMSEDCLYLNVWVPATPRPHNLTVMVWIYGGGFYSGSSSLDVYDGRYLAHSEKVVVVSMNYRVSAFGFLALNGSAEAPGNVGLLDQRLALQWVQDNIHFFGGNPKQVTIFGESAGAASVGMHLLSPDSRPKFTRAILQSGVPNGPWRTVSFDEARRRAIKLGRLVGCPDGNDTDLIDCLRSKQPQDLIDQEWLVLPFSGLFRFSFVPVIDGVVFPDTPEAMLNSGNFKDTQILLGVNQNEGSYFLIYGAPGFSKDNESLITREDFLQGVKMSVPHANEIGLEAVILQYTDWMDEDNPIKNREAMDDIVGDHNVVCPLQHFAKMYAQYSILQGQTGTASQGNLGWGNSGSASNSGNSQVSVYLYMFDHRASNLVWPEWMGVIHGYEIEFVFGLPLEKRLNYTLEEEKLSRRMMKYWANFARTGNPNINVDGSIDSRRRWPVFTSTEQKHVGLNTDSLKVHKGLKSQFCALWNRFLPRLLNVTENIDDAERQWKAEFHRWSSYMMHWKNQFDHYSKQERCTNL

By IC50 is commonly meant the midpoint of a concentration-inhibition curve. Regarding `O=c1oc2c(O)c(O)cc3c(=O)oc4c(O)c(O)cc1c4c23` [Compound-II, Ellagic acid], the “% AChE Mean ± SEM” value in assay [1] (31.05 µg/mL) is given as 41±0.3 %; in assay [1] (62.5 µg/mL) it was 48±0.5 %; in assay [1] (125 µg/mL), 52±0.4 %; in assay [1] (250 µg/mL), 68±0.1 %; in assay [1] (500 µg/mL), 75±0.4 %; in assay [1] (1000 µg/mL), 81±0.5 %. Moreover, in assay [1], the IC50 was 195 µM. In the assay “DPPH scavenging assay”, the “DPPH IC50” value turned out to be 39 µg/mL. Further, the “% DPPH Scavenging Mean ± SEM” value worked out at 44±1.4 % in the assay “DPPH scavenging assay” (31.05 µg/mL); 57±0.5 % in “DPPH scavenging assay” (62.5 µg/mL); 59±0.4 % in the assay “DPPH scavenging assay” (125 µg/mL); 60±1.2 % in the assay “DPPH scavenging assay” (250 µg/mL); 70±0.5 % in “DPPH scavenging assay” (500 µg/mL); 77±1.1 % in the assay “DPPH scavenging assay” (1000 µg/mL). Also, the “ABTS IC50” value in “ABTS scavenging assay” is 44 µg/mL. Besides, the “% ABTS Scavenging Mean ± SEM” value in the assay “ABTS scavenging assay” (31.05 µg/mL) is 41±0.5 %; in the assay “ABTS scavenging assay” (62.5 µg/mL) it was 49±1.0 %; in the assay “ABTS scavenging assay” (125 µg/mL) it was 57±1.0 %; in the assay “ABTS scavenging assay” (250 µg/mL), 64±0.3 %; in “ABTS scavenging assay” (500 µg/mL), 65±0.4 %; in “ABTS scavenging assay” (1000 µg/mL), 69±1.0 %.
Consider `O=C(O)c1cc(O)c(O)c(O)c1` [Compound-III, Gallic acid], for which the “% AChE Mean ± SEM” value in assay [1] (31.05 µg/mL) is listed as 39±0.5 %; in assay [1] (62.5 µg/mL) it was 43±1.1 %; in assay [1] (125 µg/mL), 49±1.4 %; in assay [1] (250 µg/mL), 55±0.3 %; in assay [1] (500 µg/mL), 62±1.2 %; in assay [1] (1000 µg/mL) it was 76±2.1 %. Moreover, the IC50 in assay [1] was 265 µM. The “DPPH IC50” value in the assay “DPPH scavenging assay” was determined as 52 µg/mL. For the same compound, the “% DPPH Scavenging Mean ± SEM” value amounted to 43±1.4 % in “DPPH scavenging assay” (31.05 µg/mL); 48±0.5 % in “DPPH scavenging assay” (62.5 µg/mL); 50±1.2 % in “DPPH scavenging assay” (125 µg/mL); 59±1.5 % in the assay “DPPH scavenging assay” (250 µg/mL); 70±1.1 % in “DPPH scavenging assay” (500 µg/mL); 76±0.5 % in “DPPH scavenging assay” (1000 µg/mL). Further, the “ABTS IC50” value in the assay “ABTS scavenging assay” came out at 54 µg/mL. Also, the “% ABTS Scavenging Mean ± SEM” value came to 43±1.3 % in the assay “ABTS scavenging assay” (31.05 µg/mL); 48±0.4 % in “ABTS scavenging assay” (62.5 µg/mL); 50±1.5 % in the assay “ABTS scavenging assay” (125 µg/mL); 54±1.1 % in the assay “ABTS scavenging assay” (250 µg/mL); 60±0.5 % in the assay “ABTS scavenging assay” (500 µg/mL); 65±2.1 % in the assay “ABTS scavenging assay” (1000 µg/mL).
Consider `Oc1cc(O)cc(O)c1` [Compound-IV, Phloroglucinol], for which the “% AChE Mean ± SEM” value came out at 21±1.5 % in assay [1] (31.05 µg/mL); 29±2.1 % in assay [1] (62.5 µg/mL); 34±1.5 % in assay [1] (125 µg/mL); 40±0.5 % in assay [1] (250 µg/mL); 52±1.6 % in assay [1] (500 µg/mL); 66±1.2 % in assay [1] (1000 µg/mL). Further, the IC50 in assay [1] was 730 µM. For the same compound, in the assay “DPPH scavenging assay”, the “DPPH IC50” value was determined as 105 µg/mL. Moreover, the “% DPPH Scavenging Mean ± SEM” value in “DPPH scavenging assay” (31.05 µg/mL) worked out at 32±0.5 %; in “DPPH scavenging assay” (62.5 µg/mL), 36±1.1 %; in “DPPH scavenging assay” (125 µg/mL) it was 40±0.5 %; in “DPPH scavenging assay” (250 µg/mL), 51±1.0 %; in “DPPH scavenging assay” (500 µg/mL), 57±1.0 %; in “DPPH scavenging assay” (1000 µg/mL) it was 67±0.4 %. In addition, the “ABTS IC50” value in “ABTS scavenging assay” is given as 112 µg/mL. In addition, the “% ABTS Scavenging Mean ± SEM” value is recorded as 25±1.0 % in the assay “ABTS scavenging assay” (31.05 µg/mL); 33±0.5 % in “ABTS scavenging assay” (62.5 µg/mL); 39±1.2 % in the assay “ABTS scavenging assay” (125 µg/mL); 45±1.0 % in “ABTS scavenging assay” (250 µg/mL); 51±0.5 % in the assay “ABTS scavenging assay” (500 µg/mL); 54±1.1 % in the assay “ABTS scavenging assay” (1000 µg/mL).
Regarding `COc1cc2c(cc1OC)C(=O)C(CC1CCN(Cc3ccccc3)CC1)C2` (centres unmarked) [Donepezil, reference compound], in assay [2] (day 1-5, vs scopolamine treated group), the escape latency entry was “significant decline (p < 0.001)”. In assay [2] (setting [4]), the “percentage of alternate arm returns” value is “significant (*p<0.05; **p < 0.01) increase” and the “percentage of same arm returns” value is “significant (p < 0.01) reduction”. Further, the “time for exploration of novel object, test phase, long term memory” value in assay [3] (CHF. Ext 100 & 200 mg/kg, CGA 10 & 30 mg/kg) is recorded as “significant (*p < 0.05, **p < 0.01) increase”. Also, in assay [3] (CHF. Ext 100, 200 mg/kg, CGA 10 & 30 mg/kg), the “%DI, long term memory” value is “significant (*p < 0.05, **p < 0.01) increase”. The “time with novel object, test phase, short term memory” value in assay [3] (vs scopolamine group (*p < 0.05, **p < 0.01), CHF. Ext 50, 100, 200 mg/kg, CGA 10 and 30 mg/kg) is on record as “more time with novel object”.
As to `O=C1O[C@H]([C@@H](O)CO)C(O)=C1O` [Ascorbic acid, reference compound], the “DPPH IC50” value in “DPPH scavenging assay” is given as 29 µg/mL. The “% DPPH Scavenging Mean ± SEM” value in the assay “DPPH scavenging assay” (31.05 µg/mL) is reported as 69±0.4%; in the assay “DPPH scavenging assay” (62.5 µg/mL), 73±0.5%; in the assay “DPPH scavenging assay” (125 µg/mL), 77±0.4%; in the assay “DPPH scavenging assay” (250 µg/mL), 80±0.4%; in the assay “DPPH scavenging assay” (500 µg/mL), 86±1.0%; in the assay “DPPH scavenging assay” (1000 µg/mL), 91±0.5%. For the same compound, the “ABTS IC50” value in “ABTS scavenging assay” stood at 32 µg/mL. In addition, the “% ABTS Scavenging Mean ± SEM” value in the assay “ABTS scavenging assay” (31.05 µg/mL) was 56±1.1%; in the assay “ABTS scavenging assay” (62.5 µg/mL), 64±1.0%; in the assay “ABTS scavenging assay” (125 µg/mL), 70±0.5%; in “ABTS scavenging assay” (250 µg/mL) it was 78±0.5%; in “ABTS scavenging assay” (500 µg/mL) it was 84±1.1%; in “ABTS scavenging assay” (1000 µg/mL), 90±0.5%.
